Data published in patent US12404232B2, “Compounds and compositions for intracellular delivery of therapeutic agents” (ModernaTX, Inc., priority 2015, dated 2025).

How the values were obtained:
mice [1] = test: Cytokine induction (IL-6, IP-10) in mice after intravenous administration; format: in vivo; parameters: IL-6 / IP-10: unit not given here; settings: 0.5 mpk, 6 hours
Outline: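 Nanoparticle compositions given intravenously to mice at 0.5 mpk; serum cytokine concentrations measured at 6 hours, with MC3 formulation and PBS as comparators.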

rats [2] = test: Cytokine induction (IP-10) in rats after intravenous administration; format: in vivo; settings: rat, 6 hours after administration of hEPO nanoparticle compositions, 2.0 mpk
Procedure: The expression of hEPO and cytokine induction in rats intravenously administered a nanoparticle composition at a dose of 2.0 mpk was measured at 6 h.
(§1) Table 19 summarizes the hEPO expression, IP-10 induction, liver and spleen levels, and alanine aminotransferase (ALT) and aspartate aminotransferase (AST) measured upon intravenous administration of formulations including Compounds 48, 49, and 50 to rat at 0.2 and 2 mpk and hEPO mRNA. hEPO concentrations were measured 6 hours after administration, while cytokine induction and liver and spleen levels were measured 48 hours after administration. hEPO and IP-10 concentrations are presented in pg/ml, while liver levels are provided in ng/g. ALT and AST levels are presented in international units.

rat = test: Clinical chemistry and hematology in rat after intravenous administration; format: in vivo; parameters: unit not given here; settings: 2 mpk, 48 h post dose
Procedure: Sample formulations of nanoparticle compositions including different lipids were administered intravenously to rat at a dose of 2 mpk. The expression of various clinical markers was evaluated at 48 h post dose and compared to that induced by administration of MC3 formulations or phosphate buffered saline (PBS).
as §1

rats [3] = test: Residual lipid levels in liver and spleen of rats (UPLC-MS quantification); format: in vivo, rat; settings: rats, 2 mpk, 48 h; assuming 300 g rat and 15 g liver
Procedure: At 48 h liver tissue was harvested for lipid quantification. To pre-weighed tissues, Milli-Q water was added (900 μL water per 100 mg tissue). Tissues were homogenized using an Omni probe homogenizer until uniform. 50 μL of samples and matrix calibration standards were aliquoted into a 96-well plate. 50 μL of blank matrix for matrix blanks and control blanks were aliquoted. 400 μL IS spiking solution were manually added to all samples except matrix blanks. 400 μL of 50:50 ACN:IPA were manually added to matrix blanks. The plate was covered and the samples vortexed and centrifuged for 5 minutes at >3000 rpm. 200 μL of the samples were transferred into a clean 96-well plate for analysis. Samples were analyzed on a Waters Acquity UPLC using a Higgins Analytical Clipeus C8 column ([…], 30×2.1 mm) and a gradient of either 70-95% or 60-95% (Mobile Phase A: 5 mM ammonium formate in 50:50:1 H2O:MeOH:formic acid; Mobile Phase B: 5 mM ammonium formate in 100:1 MeOH:formic acid) over 1.3 min at 1.2 mL/min (column temperature 55° C.). Detection was based on electrospray ionization (ESI) in positive mode using a Sciex API5500 Mass Spectrometer.
The expression of hEPO in rats intravenously administered a nanoparticle composition at a dose of 0.2 mpk or 2.0 mpk was measured at 6 hours. Table 16 summarize the ratio of hEPO expression levels using various nanoparticle compositions as compared to the hEPO expression level using MC3 formulation and the lipid levels in the liver measured 48 hours after administration, as described above. Tables 17 and 18 summarize the lipid levels in the liver and spleen measured 48 hours after administration of Compounds 28, 33, 53, and 54. Liver and spleen levels represent the average values calculated for 3 rats in each group. As is shown in Tables 17 and 18, less than 10% of Compounds 28, 33, 53, and 54 remained in the liver after 48 hours, while greater than 60% of MC3 remained.
as §1
The expression of hEPO induced by intravenous administration to rats of nanoparticle compositions at various doses was measured at 2, 4, 6, 8, 24, and 48 hour time points. FIGS. 3-6 respectively summarize the hEPO expression measured upon intravenous administration of formulations including Compounds 26, 18, 25, and MC3 to rat at various doses. The lipid levels of Compound 26 in the liver after 48 hours were about 19%.
The expression of hEPO and lipid levels in the liver and spleen in rats intravenously administered a nanoparticle composition at a dose of 0.2 mpk was measured at various timepoints. Compounds 18 and 25 were selected for comparison with MC3. Lipids were formulated according to the standard MC3 formulation described above. Rats were administered intravenously a single 0.2 mpk dose and expression monitored at 0.25, 0.5, 1, 2, 4, 8, 24, and 48 hours after administration.

mice [4] = test: Luc expression (total flux) after intramuscular administration; format: in vivo; settings: 6 hours after intramuscular administration, Luc mRNA and H10 mRNA

IL-6 (mice [1]) | IP-10 (mice [1]) | IP-10 (rats [2]) | Alanine aminotransferase (Concentration) (rat) | Aspartate aminotransferase (Concentration) (rat) | Lymphocytes (Concentration) (rat) | Monocytes (Concentration) (rat) | Neutrophils (Concentration) (rat) | % Lipid Remaining in liver, 48 h* 2 mpk (rats [3]) | SMILES | Total flux (p/s) 0.001 mpk Dose (mice [4]) | Total flux (p/s) 0.01 mpk Dose (mice [4])
163.53 | 1172.93 | 323.5 pg/mL | 51.5 | 90 | 14100 | 1834 | 1790.5 | 0.016% | CCCCCC/C=C\COC(=O)CCCCCCCN(CCO)CCCCCCCC(=O)OC(CCCCCCCC)CCCCCCCC [Compound 24, Heptadecan-9-yl (Z)-8_((2-hydroxyethyl) (8-(non-2-en-1-yloxy)-8-oxooctyl)amino)octanoate] | 3.78E+06 p/s | 3.97E+07 p/s
– | – | 542 pg/mL | 53.5 | 87.5 | 12051 | 2103 | 3388.5 | 14% | CCCCCCCCCN(CCO)CCCCCCCC(=O)OC(CCCCCCCC)CCCCCCCC [Compound 3, Heptadecan-9-yl 8-((2-hydroxyethyl)(nonyl)amino)octanoate] | 3.58E+06 p/s | 4.95E+07 p/s
152.51 | 1638.77 | 214.5 pg/mL | 56 | 95 | 10408.5 | 877 | 3195 | <0.01% | CCCCCCCCCOC(=O)CCCCCCCN(CCO)CCCCCCCOC(=O)C(CCCCCCCC)CCCCCCCC [Compound 30, 7-((2-Hydroxyethyl)(8-(nonyloxy)-8-oxooctyl)amino)heptyl 2-octyldecanoate] | 2.47E+06 p/s | 3.77E+07 p/s
